≈ marks a conversion by molar mass, not a printed value.
Assays:
[1] = biological target: Galectin-3 (Homo sapiens, UniProt P17931); assay: fluorescence anisotropy assay, inhibition of galectin / fluorescein tagged saccharide probe interaction; assay type: binding; details: for Kd: fluorescence anisotropy; for affinity towards the corresponding galectin (in words): pro-drug itself
[2] = aqueous solubility; assay type: physicochemical; details: water
[3] = mouse PK experiments, plasma exposure of Ref 1 after p.o. administration; assay type: in vivo; details: for exposure in mice PK after per oral administration: mouse, p.o., 20, 40, 80 and 160 mg/kg, plasma exposure of Ref 1
[4] = system: galectins; details: cited from earlier work

Galectin-3, sequence (P17931 whole entry): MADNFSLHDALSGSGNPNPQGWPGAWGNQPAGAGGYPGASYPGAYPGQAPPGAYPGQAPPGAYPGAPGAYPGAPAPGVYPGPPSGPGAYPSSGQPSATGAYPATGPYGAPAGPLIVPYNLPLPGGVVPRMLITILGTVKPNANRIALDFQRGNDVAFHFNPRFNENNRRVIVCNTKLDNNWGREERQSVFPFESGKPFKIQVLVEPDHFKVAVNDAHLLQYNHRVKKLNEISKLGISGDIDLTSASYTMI

SMILES	Kd [1] [µM]	solubility [2] [µg/mL]	other results
O=S(=O)(O)OC[C@H]1O[C@H](Sc2cncc(Br)c2)[C@H](O)[C@@H](n2cc(-c3cc(F)c(F)c(F)c3)nn2)[C@H]1O [Example 6, 5-Bromopyridin-3-yl 3-Deoxy-3-[4-(3,4,5-trifluorophenyl)-1H-1,2,3-triazol-1-yl]-6-O-sulfo-1-thio-α-D-galactopyranoside]	27	9600 (≈ 15.7 mM)	–
O=C[C@H](O)[C@@H](O)[C@@H](O)[C@H](O)CO [D-galactose]	–	–	affinity, times lower than lactose ([4]; relative to lactose): 50-100 times
O=S(=O)(O)OC1C(n2cc(-c3cc(F)c(F)c(F)c3)nn2)[C@@H](O)C(CO)O[C@@H]1Sc1ccc(Cl)c(Cl)c1 (stereo partly drawn) [Example 4, 3,4-Dichlorphenyl 3-Deoxy-3-[4-(3,4,5-trifluorophenyl)-1H-1,2,3-triazol-1-yl]-2-O-sulfo-1-thio-α-D-galactopyranoside]	0.014	–	–
O=P(O)(O)O[C@@H]1[C@@H](n2cc(-c3cc(F)c(F)c(F)c3)nn2)[C@@H](O)[C@@H](CO)O[C@@H]1Sc1cncc(Br)c1 [Example 2, 5-Bromopyridin-3-yl 3-deoxy-3-[4-(3,4,5-trifluorophenyl)-1H-1,2,3-triazol-1-yl]-2-O-phospho-1-thio-α-D-galactopyranoside]	0.006	9800 (≈ 16 mM)	–
OC[C@H]1O[C@@H](O[C@H]2[C@H](O)[C@@H](O)C(O)O[C@@H]2CO)[C@H](O)[C@@H](O)[C@H]1O (stereo partly shown) [lactose]	–	–	Kd ([4]; read-out: Kd, all galectins): 500 to 1000 µM
O=S(=O)(O)O[C@@H]1[C@@H](n2cc(-c3cc(F)c(F)c(F)c3)nn2)[C@@H](O)[C@@H](CO)O[C@@H]1Sc1cncc(Br)c1 [Example 5, 5-Bromopyridin-3-yl 3-Deoxy-3-[4-(3,4,5-trifluorophenyl)-1H-1,2,3-triazol-1-yl]-2-O-sulfo-1-thio-α-D-galactopyranoside]	0.004	–	–
O=P(O)(O)O[C@@H]1[C@@H](n2cc(-c3cc(F)c(F)c(F)c3)nn2)[C@@H](O)[C@@H](CO)O[C@@H]1Sc1ccc(Cl)c(Cl)c1 [Example 3, 3,4-Dichlorophenyl 3-deoxy-3-[4-(3,4,5-trifluorophenyl)-1H-1,2,3-triazol-1-yl]-2-O-phospho-1-thio-α-D-galactopyranoside]	0.007	–	–
O=P(O)(O)OC[C@H]1O[C@H](Sc2cncc(Br)c2)[C@H](O)[C@@H](n2cc(-c3cc(F)c(F)c(F)c3)nn2)[C@H]1O [Example 1, 5-Bromopyridin-3-yl 3-deoxy-3-[4-(3,4,5-trifluorophenyl)-1H-1,2,3-triazol-1-yl]-6-O-phospho-1-thio-α-D-galactopyranoside]	35	8500 (≈ 13.9 mM)	affinity towards the corresponding galectin (in words) [1]: low

More lines, main results first:

Kd [1] [µM]	solubility [2] [µg/mL]	SMILES	other results
–	37 (≈ 0.0708 mM)	OC[C@H]1O[C@H](Sc2ccc(Cl)c(Cl)c2)[C@H](O)[C@@H](n2cc(-c3cc(F)c(F)c(F)c3)nn2)[C@H]1O [Ref 2, 3,4-Dichlorophenyl 3-deoxy-3-[4-(3,4,5-trifluorophenyl)-1H-1,2,3-triazol-1-yl]-1-thio-α-D-galactopyranoside, reference compound]	–
15	> 10000	O=P(O)(O)OCOC[C@H]1O[C@H](Sc2cncc(Br)c2)[C@H](O)[C@@H](n2cc(-c3cc(F)c(F)c(F)c3)nn2)[C@H]1O [Example 7, 5-Bromopyridin-3-yl 3-deoxy-3-[4-(3,4,5-trifluorophenyl)-1H-1,2,3-triazol-1-yl]-6-O-[(phosphonooxy)methyl]-1-thio-α-D-galactopyranoside]	exposure in mice PK after per oral administration [3]: dose correlated exposure; affinity towards the corresponding galectin (in words) [1]: low
–	7 (≈ 0.0131 mM)	OC[C@H]1O[C@H](Sc2cncc(Br)c2)[C@H](O)[C@@H](n2cc(-c3cc(F)c(F)c(F)c3)nn2)[C@H]1O [Ref 1, 5-Bromopyridin-3-yl 3-deoxy-3-[4-(3,4,5-trifluorophenyl)-1H-1,2,3-triazol-1-yl]-1-thio-α-D-galactopyranoside, reference compound]	oral availability ([3]; mouse PK, some formulations, dosed above 10 mg/kg): limited oral availability
0.01	> 10000	O=P(O)(O)OCO[C@@H]1[C@@H](n2cc(-c3cc(F)c(F)c(F)c3)nn2)[C@@H](O)[C@@H](CO)O[C@@H]1Sc1cncc(Br)c1 [Example 8, 5-Bromopyridin-3-yl 3-deoxy-3-[4-(3,4,5-trifluorophenyl)-1H-1,2,3-triazol-1-yl]-2-O-[(phosphonooxy)methyl]-1-thio-α-D-galactopyranoside]	exposure in mice PK after per oral administration [3]: dose correlated exposure
–	7 (≈ 0.0127 mM)	OC[C@H]1O[C@H](Sc2cncc(Br)c2)[C@H](O)[C@@H](n2cc(-c3cc(F)c(Cl)c(F)c3)nn2)[C@H]1O [Ref 3, 5-Bromopyridin-3-yl 3-deoxy-3-[4-(4-chloro-3,5-difluorophenyl)-1H-1,2,3-triazol-1-yl]-1-thio-α-D-galactopyranoside, reference compound]	–
0.007	800 (≈ 1.21 mM)	O=P(O)(O)OCO[C@@H]1[C@@H](n2cc(-c3cc(F)c(Cl)c(F)c3)nn2)[C@@H](O)[C@@H](CO)O[C@@H]1Sc1cncc(Br)c1 [Example 9, 5-Bromopyridin-3-yl 3-[4-(4-chloro-3,5-difluorophenyl)-1H-1,2,3-triazol-1-yl]-3-deoxy-2-O-[(phosphonooxy)methyl]-1-thio-α-D-galactopyranoside]	–

Reference: US20210380623A1, “PRODRUG GALACTOSIDE INHIBITOR OF GALECTINS” (GALECTO BIOTECH AB, priority 2018, published 2021)
